This experiment concerns mice. Description: Neuropharmacological Assay (SmartCube): automated behavioral signature of compound-treated mice compared with a database of reference drug classes. In kind it is in vivo. To be noted: for AD / AG / AN / CE / HL / MS / PS / SH / AP / AX / UK: SmartCube class probability, 3.0 mg/kg i.p., 15 min before test; for MED / minimal effective dose: minimal effective dose: dose having 45% or more total activity in SmartCube, i.p., if only one dose tested, that dose is shown; for minimal effective dose: Mus musculus, ip, read-out: MED. The method, boiled down:
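Dose-response work typically spanned 0.3–10 mpk, widened or narrowed to obtain a full curve, with i.p. administration 15 min pre-test. MED is defined as the dose producing ≥45% total SmartCube activity; single-dose entries list the tested dose.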

The structures appear in SMILES notation. Where a name gives a salt, the structure may show the parent alone. Bounds are passed on as bounds.

`CNC1CCc2scc(C3CC3)c2C1` (single isomer, unassigned) [Compound 250, 3-cyclopropyl-N-methyl-4,5,6,7-tetrahydrobenzothiophen-5-amine hydrochloride]: the AD entry is on record as “ND (^ <4%)”, the AG entry was “ND (^ <4%)”, the AN entry is given as “ND (^ <4%)” and the CE result is listed as “ND (^ <4%)”. In addition, the HL entry is given as “ND (^ <4%)”, the MS result was “ND (^ <4%)”, the PS result is listed as “ND (^ <4%)” and the SH result is “ND (^ <4%)”. Also, the MED was found to be 3 mpk. Besides, where the note is “hydrochloride, 3 mg/kg”, the AP result is recorded as “+ (≥4%)”, the AX entry is “++++ (≥74%)” and the UK result is recorded as “ND (^ <4%)”.
Consider `CCc1csc2c1CC(NC)CC2` (single isomer, unassigned) [Compound 251, 3-ethyl-N-methyl-4,5,6,7-tetrahydrobenzothiophen-5-amine hydrochloride], for which the minimal effective dose was over 3 mg/kg, the AD entry is on record as “ND (^ <4%)”, the AG result is reported as “ND (^ <4%)” and the AN result is “ND (^ <4%)”. Moreover, the AX entry is listed as “ND (^ <4%)”, the HL result was “ND (^ <4%)”, the MS result is listed as “ND (^ <4%)” and the SH result was “ND (^ <4%)”. For the setting “hydrochloride, 3 mg/kg”, the AP entry is “ND (^ <4%)” and the UK result is “++ (≥24%)”.
Turning to `CCc1csc2c1CC(NC)CC2` (single isomer, unassigned) [Compound 252, 3-ethyl-N-methyl-4,5,6,7-tetrahydrobenzothiophen-5-amine hydrochloride], the AD entry is listed as “ND (^ <4%)”, the AG entry was “ND (^ <4%)”, the AN entry is recorded as “ND (^ <4%)” and the AX result was “ND (^ <4%)”. For the same compound, the HL result is given as “ND (^ <4%)”, the MS result is given as “ND (^ <4%)” and the SH entry was “ND (^ <4%)”. For the setting “hydrochloride, 3 mg/kg”, the AP result is “+ (≥4%)”, the CE result was “ND (^ <4%)”, the PS entry is recorded as “ND (^ <4%)” and the UK entry is on record as “+++ (≥49%)”. In addition, the MED (hydrochloride) was determined as 3 mpk.
For `NC1CCc2scc(C(F)(F)F)c2C1` (single isomer, unassigned) [Compound 254, 3-(trifluoromethyl)-4,5,6,7-tetrahydrobenzothiophen-5-amine hydrochloride], the minimal effective dose is over 3 mg/kg, the AD entry was “ND (^ <4%)”, the AG entry was “ND (^ <4%)” and the AN result was “ND (^ <4%)”. The AP entry is given as “ND (^ <4%)”, the AX entry is on record as “ND (^ <4%)”, the CE entry is given as “ND (^ <4%)” and the HL entry was “ND (^ <4%)”. Also, the MS result was “ND (^ <4%)”, the PS entry is on record as “ND (^ <4%)” and the SH entry is on record as “ND (^ <4%)”. Also, the UK result (hydrochloride, 3 mg/kg) is on record as “+ (≥4%)”.
For `NC1CCc2scc(C(F)(F)F)c2C1` (single isomer, unassigned) [Compound 255, 3-(trifluoromethyl)-4,5,6,7-tetrahydrobenzothiophen-5-amine hydrochloride], the AD result was “ND (^ <4%)”, the AG result was “ND (^ <4%)”, the AN entry is recorded as “ND (^ <4%)” and the AP result was “ND (^ <4%)”. Moreover, the AX result was “ND (^ <4%)”, the CE result is “ND (^ <4%)”, the HL entry is on record as “ND (^ <4%)” and the MS result is recorded as “ND (^ <4%)”. For the same compound, the PS result is given as “ND (^ <4%)”, the SH entry is “ND (^ <4%)” and the MED is on record as over 3 mpk. In addition, the UK entry (hydrochloride, 3 mg/kg) is recorded as “ND (^ <4%)”.
Turning to `CNC1CCc2sc(-c3ccccc3)cc2C1.Cl` (single isomer, unassigned) [Compound 256, N-methyl-2-phenyl-4,5,6,7-tetrahydrobenzothiophen-5-amine hydrochloride], the minimal effective dose is over 3 mg/kg, the AD entry is “ND (^ <4%)”, the AG result is recorded as “ND (^ <4%)” and the AN entry was “ND (^ <4%)”. The AP result is “ND (^ <4%)”, the AX result was “ND (^ <4%)”, the CE entry was “ND (^ <4%)” and the HL entry was “ND (^ <4%)”. For the same compound, the MS entry is on record as “ND (^ <4%)”, the PS result was “ND (^ <4%)” and the SH result was “ND (^ <4%)”. Besides, the UK result (hydrochloride, 3 mg/kg) was “+ (≥4%)”.
Consider `CNC1CCc2sc(-c3ccccc3)cc2C1.Cl` (single isomer, unassigned) [Compound 257, N-methyl-2-phenyl-4,5,6,7-tetrahydrobenzothiophen-5-amine hydrochloride], for which the AD entry was “ND (^ <4%)”, the AG entry is on record as “ND (^ <4%)”, the AN entry is “ND (^ <4%)” and the AP entry is reported as “ND (^ <4%)”. The AX entry was “ND (^ <4%)”, the CE result is “ND (^ <4%)”, the HL result is “ND (^ <4%)” and the MS entry was “ND (^ <4%)”. Moreover, the PS result is listed as “ND (^ <4%)”, the SH entry was “ND (^ <4%)” and the MED was over 3 mpk. Also, the UK entry (hydrochloride, 3 mg/kg) is recorded as “++ (≥24%)”.
As for `CNC1COc2csc(C(F)(F)F)c2C1` (single isomer, unassigned) [Compound 258, N-methyl-5-(trifluoromethyl)-3,4-dihydro-2H-thieno[3,4-b]pyran-3-amine hydrochloride], the minimal effective dose is over 3 mg/kg, the AD result is on record as “ND (^ <4%)”, the AG entry was “ND (^ <4%)” and the AN entry was “ND (^ <4%)”. Also, the AP result was “ND (^ <4%)”, the AX result is reported as “ND (^ <4%)”, the CE result was “ND (^ <4%)” and the HL result was “ND (^ <4%)”. For the same compound, the MS result is reported as “ND (^ <4%)”, the PS entry is recorded as “ND (^ <4%)” and the SH entry was “ND (^ <4%)”. Where the note is “hydrochloride, 3 mg/kg”, the UK entry was “+ (≥4%)”.
As to `CNC1COc2csc(C(F)(F)F)c2C1` (single isomer, unassigned) [Compound 259, N-methyl-5-(trifluoromethyl)-3,4-dihydro-2H-thieno[3,4-b]pyran-3-amine hydrochloride], the AD entry is listed as “ND (^ <4%)”, the AG result is reported as “ND (^ <4%)”, the AN entry is given as “ND (^ <4%)” and the AP entry is reported as “ND (^ <4%)”. Moreover, the AX entry is “ND (^ <4%)”, the CE result is on record as “ND (^ <4%)”, the HL result is listed as “ND (^ <4%)” and the MS result is reported as “ND (^ <4%)”. The PS entry is “ND (^ <4%)”, the SH entry is recorded as “ND (^ <4%)” and the MED is over 3 mpk. Moreover, the UK entry (hydrochloride, 3 mg/kg) is listed as “++ (≥24%)”.

Values taken from US20260274814A1, “THIENYL COMPOUNDS FOR THE TREATMENT OF A CENTRAL NERVOUS SYSTEM DISEASE OR DISORDER” (Coreterra Therapeutics, Inc., priority 2023, published 2026).
